Assay results published in patent publication US9738634B2, “Heterocyclic amide compound and herbicide” (SYNGENTA PARTICIPATIONS AG, priority 2013, dated 2017).

Key:
Format in all cases: in vivo
barnyard grass [1] = experiment: Test Example 1: weedkilling efficacy, preemergent weed treatment in the submerged state; A: barnyard grass
Procedure, shortened: (§1)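 Visual scores against set criteria were taken 3 weeks after treatment. Compounds, as diluted emulsions at specified g/ha, went onto the water surface of 4 cm-flooded alluvial soil pots on the day weeds were sown and 2.5-leaf rice was transplanted; greenhouse held 25–30 °C.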

bulrush [2] = experiment: Test Example 2: weedkilling efficacy, growth period weed treatment in the submerged state; B: bulrush
Procedure, shortened: (§2)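 Barnyard grass, bulrush and oval-leafed pondweed sown in alluvial soil under 4 cm flooding, greenhouse 25 to 30° C. At 1-2 leaf stage, water-diluted emulsion applied to the water surface at stated g/ha dosages; effects scored 3 weeks later.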

transplanted rice = experiment: Test Example 1: preemergent weed treatment in the submerged state, effect on crop; a: transplanted rice
Procedure, shortened: as §1

oval-leafed pondweed [3] = experiment: Test Example 1: weedkilling efficacy, preemergent weed treatment in the submerged state; C: oval-leafed pondweed
Procedure, shortened: as §1

barnyard grass [4] = experiment: Test Example 2: weedkilling efficacy, growth period weed treatment in the submerged state; A: barnyard grass
Procedure, shortened: as §2

oval-leafed pondweed [5] = experiment: Test Example 2: weedkilling efficacy, growth period weed treatment in the submerged state; C: oval-leafed pondweed
Procedure, shortened: as §2

bulrush [6] = experiment: Test Example 1: weedkilling efficacy, preemergent weed treatment in the submerged state; B: bulrush
Procedure, shortened: as §1

Row | SMILES | B (bulrush) weedkilling efficacy grade (bulrush [2]; treatment dosage 252 g/ha) | A (barnyard grass) weedkilling efficacy grade (barnyard grass [4]; treatment dosage 252 g/ha) | C (oval-leafed pondweed) weedkilling efficacy grade (oval-leafed pondweed [5]; treatment dosage 252 g/ha) | A: barnyard grass, weed kill grade (barnyard grass [1]; treatment dosage 320 g/ha) | B (bulrush) weedkilling efficacy grade (bulrush [2]; treatment dosage 320 g/ha) | a: transplanted rice, effect on crop grade (transplanted rice; treatment dosage 320 g/ha) | C: oval-leafed pondweed, weed kill grade (oval-leafed pondweed [3]; treatment dosage 320 g/ha) | A (barnyard grass) weedkilling efficacy grade (barnyard grass [4]; treatment dosage 320 g/ha) | C (oval-leafed pondweed) weedkilling efficacy grade (oval-leafed pondweed [5]; treatment dosage 320 g/ha) | B: bulrush, weed kill grade (bulrush [6]; treatment dosage 320 g/ha) | other results
1 | CC(C)(C(=O)Nc1cc(Cl)cc(Cl)n1)N1COCN(c2ccccc2Cl)C1=O [A-6-06] | 5 (weed kill ratio 90% or more, (practically complete withering)) | 5 (weed kill ratio 90% or more, (practically complete withering)) | 5 (weed kill ratio 90% or more, (practically complete withering)) | – | – | – | – | – | – | – | A: barnyard grass, weed kill grade (barnyard grass [1]; treatment dosage 252 g/ha): 5 (weed kill ratio 90% or more, (practically complete withering)); a: transplanted rice, effect on crop grade (transplanted rice; treatment dosage 252 g/ha): 2 (weed kill ratio 20% or more, less than 40%); C: oval-leafed pondweed, weed kill grade (oval-leafed pondweed [3]; treatment dosage 252 g/ha): 5 (weed kill ratio 90% or more, (practically complete withering)); B: bulrush, weed kill grade (bulrush [6]; treatment dosage 252 g/ha): 5 (weed kill ratio 90% or more, (practically complete withering))
2 | Cc1cccc(N2COCN(C(C)(C)C(=O)Nc3cc(C(F)(F)F)ccn3)C2=O)c1 [A-6-07] | – | – | – | 5 (weed kill ratio 90% or more, (practically complete withering)) | 5 (weed kill ratio 90% or more, (practically complete withering)) | 1 (weed kill ratio 5% or more, less than 20%) | 5 (weed kill ratio 90% or more, (practically complete withering)) | 4 (weed kill ratio 70% or more, less than 90%) | 3 (weed kill ratio 40% or more, less than 70%) | 5 (weed kill ratio 90% or more, (practically complete withering)) | –
3 | Cc1cccc(N2COCN(C(C)(C)C(=O)Nc3cc(Cl)cc(Cl)n3)C2=O)c1 [A-6-08] | – | – | – | 5 (weed kill ratio 90% or more, (practically complete withering)) | 5 (weed kill ratio 90% or more, (practically complete withering)) | 0 (weed kill ratio 5% or less (practically no effect)) | 5 (weed kill ratio 90% or more, (practically complete withering)) | 5 (weed kill ratio 90% or more, (practically complete withering)) | 4 (weed kill ratio 70% or more, less than 90%) | 5 (weed kill ratio 90% or more, (practically complete withering)) | –
4 | Cc1ccc(N2COCN(C(C)(C)C(=O)Nc3cc(F)cc(F)n3)C2=O)cc1 [A-6-10] | – | – | – | 5 (weed kill ratio 90% or more, (practically complete withering)) | 5 (weed kill ratio 90% or more, (practically complete withering)) | 1 (weed kill ratio 5% or more, less than 20%) | 5 (weed kill ratio 90% or more, (practically complete withering)) | 4 (weed kill ratio 70% or more, less than 90%) | 5 (weed kill ratio 90% or more, (practically complete withering)) | 5 (weed kill ratio 90% or more, (practically complete withering)) | –
5 | Cc1ccc(N2COCN(C(C)(C)C(=O)Nc3cc(Cl)cc(F)n3)C2=O)cc1 [A-6-11] | – | – | – | 5 (weed kill ratio 90% or more, (practically complete withering)) | 5 (weed kill ratio 90% or more, (practically complete withering)) | 0 (weed kill ratio 5% or less (practically no effect)) | 5 (weed kill ratio 90% or more, (practically complete withering)) | 4 (weed kill ratio 70% or more, less than 90%) | 5 (weed kill ratio 90% or more, (practically complete withering)) | 5 (weed kill ratio 90% or more, (practically complete withering)) | –
6 | Cc1ccc(N2COCN(C(C)(C)C(=O)Nc3cc(Cl)cc(Cl)n3)C2=O)cc1 [A-6-12] | – | – | – | 5 (weed kill ratio 90% or more, (practically complete withering)) | 5 (weed kill ratio 90% or more, (practically complete withering)) | 2 (weed kill ratio 20% or more, less than 40%) | 5 (weed kill ratio 90% or more, (practically complete withering)) | 4 (weed kill ratio 70% or more, less than 90%) | 5 (weed kill ratio 90% or more, (practically complete withering)) | 5 (weed kill ratio 90% or more, (practically complete withering)) | –
7 | O=C1N(c2ccccc2)COCN1C1(C(=O)Nc2cc(Cl)cc(Cl)n2)CC1 [A-7-04] | – | – | – | – | – | – | – | – | – | – | A: barnyard grass, weed kill grade (barnyard grass [1]; treatment dosage 1000 g/ha): 0 (weed kill ratio 5% or less (practically no effect)); B (bulrush) weedkilling efficacy grade (bulrush [2]; treatment dosage 1000 g/ha): 1 (weed kill ratio 5% or more, less than 20%); a: transplanted rice, effect on crop grade (transplanted rice; treatment dosage 1000 g/ha): 0 (weed kill ratio 5% or less (practically no effect)); C: oval-leafed pondweed, weed kill grade (oval-leafed pondweed [3]; treatment dosage 1000 g/ha): 0 (weed kill ratio 5% or less (practically no effect)); A (barnyard grass) weedkilling efficacy grade (barnyard grass [4]; treatment dosage 1000 g/ha): 0 (weed kill ratio 5% or less (practically no effect)); C (oval-leafed pondweed) weedkilling efficacy grade (oval-leafed pondweed [5]; treatment dosage 1000 g/ha): 0 (weed kill ratio 5% or less (practically no effect)); B: bulrush, weed kill grade (bulrush [6]; treatment dosage 1000 g/ha): 5 (weed kill ratio 90% or more, (practically complete withering))
8 | CC1=C(c2ccccc2)C(=O)N(C(C)(C)C(=O)Nc2nnc(-c3ccccc3)s2)CO1 [B-1-11] | 4 (weed kill ratio 70% or more, less than 90%) | 1 (weed kill ratio 5% or more, less than 20%) | 3 (weed kill ratio 40% or more, less than 70%) | – | – | – | – | – | – | – | A (barnyard grass) weedkilling efficacy grade (barnyard grass [1]; treatment dosage 252 g/ha): 4 (weed kill ratio 70% or more, less than 90%); a (transplanted rice) effect on crop grade (transplanted rice; treatment dosage 252 g/ha): 0 (weed kill ratio 5% or less (practically no effect)); C (oval-leafed pondweed) weedkilling efficacy grade (oval-leafed pondweed [3]; treatment dosage 252 g/ha): 5 (weed kill ratio 90% or more, (practically complete withering)); B (bulrush) weedkilling efficacy grade (bulrush [6]; treatment dosage 252 g/ha): 5 (weed kill ratio 90% or more, (practically complete withering))
9 | CC1=C(c2cccnc2F)C(=O)N(C(C)(C)C(=O)Nc2cccc(Br)n2)CO1 [B-2-10] | – | – | – | – | 5 (weed kill ratio 90% or more, (practically complete withering)) | – | – | 5 (weed kill ratio 90% or more, (practically complete withering)) | 5 (weed kill ratio 90% or more, (practically complete withering)) | – | A (barnyard grass) weedkilling efficacy grade (barnyard grass [1]; treatment dosage 320 g/ha): 5 (weed kill ratio 90% or more, (practically complete withering)); a (transplanted rice) effect on crop grade (transplanted rice; treatment dosage 320 g/ha): 1 (weed kill ratio 5% or more, less than 20%); C (oval-leafed pondweed) weedkilling efficacy grade (oval-leafed pondweed [3]; treatment dosage 320 g/ha): 5 (weed kill ratio 90% or more, (practically complete withering)); B (bulrush) weedkilling efficacy grade (bulrush [6]; treatment dosage 320 g/ha): 5 (weed kill ratio 90% or more, (practically complete withering))
10 | CC1=C(c2cccnc2F)C(=O)N(C(C)(C)C(=O)Nc2cc(C(F)(F)F)ccn2)CO1 [B-2-17] | 5 (weed kill ratio 90% or more, (practically complete withering)) | 4 (weed kill ratio 70% or more, less than 90%) | 3 (weed kill ratio 40% or more, less than 70%) | – | – | – | – | – | – | – | A (barnyard grass) weedkilling efficacy grade (barnyard grass [1]; treatment dosage 252 g/ha): 5 (weed kill ratio 90% or more, (practically complete withering)); a (transplanted rice) effect on crop grade (transplanted rice; treatment dosage 252 g/ha): 3 (weed kill ratio 40% or more, less than 70%); C (oval-leafed pondweed) weedkilling efficacy grade (oval-leafed pondweed [3]; treatment dosage 252 g/ha): 5 (weed kill ratio 90% or more, (practically complete withering)); B (bulrush) weedkilling efficacy grade (bulrush [6]; treatment dosage 252 g/ha): 5 (weed kill ratio 90% or more, (practically complete withering))
11 | CC1=C(c2ccccc2)C(=O)N(C(C)(C)C(=O)Nc2cc(Cl)cc(-c3ccccc3)n2)CO1 [B-2-45] | – | – | – | – | 2 (weed kill ratio 20% or more, less than 40%) | – | – | 4 (weed kill ratio 70% or more, less than 90%) | 4 (weed kill ratio 70% or more, less than 90%) | – | A (barnyard grass) weedkilling efficacy grade (barnyard grass [1]; treatment dosage 320 g/ha): 5 (weed kill ratio 90% or more, (practically complete withering)); a (transplanted rice) effect on crop grade (transplanted rice; treatment dosage 320 g/ha): 2 (weed kill ratio 20% or more, less than 40%); C (oval-leafed pondweed) weedkilling efficacy grade (oval-leafed pondweed [3]; treatment dosage 320 g/ha): 4 (weed kill ratio 70% or more, less than 90%); B (bulrush) weedkilling efficacy grade (bulrush [6]; treatment dosage 320 g/ha): 5 (weed kill ratio 90% or more, (practically complete withering))
12 | CC1=C(c2ccccc2)C(=O)N(C(C)(C)C(=O)Nc2cc(Oc3ccccc3)cc(Cl)n2)CO1 [B-2-48] | – | – | – | – | – | – | – | – | – | – | A (barnyard grass) weedkilling efficacy grade (barnyard grass [1]; treatment dosage 266 g/ha): 5 (weed kill ratio 90% or more, (practically complete withering)); B (bulrush) weedkilling efficacy grade (bulrush [2]; treatment dosage 266 g/ha): 2 (weed kill ratio 20% or more, less than 40%); a (transplanted rice) effect on crop grade (transplanted rice; treatment dosage 266 g/ha): 0 (weed kill ratio 5% or less (practically no effect)); C (oval-leafed pondweed) weedkilling efficacy grade (oval-leafed pondweed [3]; treatment dosage 266 g/ha): 4 (weed kill ratio 70% or more, less than 90%); A (barnyard grass) weedkilling efficacy grade (barnyard grass [4]; treatment dosage 266 g/ha): 0 (weed kill ratio 5% or less (practically no effect)); C (oval-leafed pondweed) weedkilling efficacy grade (oval-leafed pondweed [5]; treatment dosage 266 g/ha): 0 (weed kill ratio 5% or less (practically no effect)); B (bulrush) weedkilling efficacy grade (bulrush [6]; treatment dosage 266 g/ha): 5 (weed kill ratio 90% or more, (practically complete withering))
13 | CC1=C(c2ccccc2)C(=O)N(C(C)(C)C(=O)Nc2cc(-c3ccccc3)ccn2)CO1 [B-2-59] | 1 (weed kill ratio 5% or more, less than 20%) | 0 (weed kill ratio 5% or less (practically no effect)) | 0 (weed kill ratio 5% or less (practically no effect)) | – | – | – | – | – | – | – | A (barnyard grass) weedkilling efficacy grade (barnyard grass [1]; treatment dosage 252 g/ha): 2 (weed kill ratio 20% or more, less than 40%); a (transplanted rice) effect on crop grade (transplanted rice; treatment dosage 252 g/ha): 0 (weed kill ratio 5% or less (practically no effect)); C (oval-leafed pondweed) weedkilling efficacy grade (oval-leafed pondweed [3]; treatment dosage 252 g/ha): 2 (weed kill ratio 20% or more, less than 40%); B (bulrush) weedkilling efficacy grade (bulrush [6]; treatment dosage 252 g/ha): 4 (weed kill ratio 70% or more, less than 90%)
